Laboratory results published in patent US20040266811A1, “Methods for inducing regeneration, remyelination, and hypermyelination of nervous tissue” (priority 2002, published 2004).
Entries after “also recorded” stand apart in the source; their conditions may differ.

What was measured:
[1] = system: calcineurin; details: cited from earlier work
[2] = system: DRG explants; experiment: DRG explant neurite outgrowth with anti-NGF neutralizing antibodies or MEK1 inhibitor; type: cell-based, C57B1/6 mice; details: DRGs cultured in 1 μM GM-284 plus inhibitor
Method: (A) DRGs were prepared and cultured as above, except that either the MEK1 inhibitor, PD 098059, or NGF-neutralizing antibodies were included in cultures treated with either NGF or GM-284. Maximal response was determined to be the extent of neurite outgrowth when DRGs were cultured in NGF alone (spotted bars) or in 1 μM GM-284 (striped bars). As indicated, DRGs were treated with either NGF or GM-284, in the presence of either 0.25 mg/ml anti-NGF neutralizing antibodies or PD 098059. […] DRGs were treated with 100 ng/ml NGF or 1 μM GM-284, for 30 min or 4 h, as indicated, and the detergent lysates were prepared and immunoblotted with anti-phospho-Erk monoclonal antibody. The p42 and p44 bands are indicated by arrowheads.
Explanted DRG ganglia were dissected from P1 to P3 C57B1/6 mice, as previously described (Weinstein et al., Targeted expression of an oncogenic adaptor protein v-Crk potentiates axonal growth in dorsal root ganglia and motor neurons in vivo. Brain Res. Dev. Brain Res., 116:29-39, 1999). Briefly, DRGs were dissected and placed in ice-cold PBS containing 2% glucose, then transferred onto polyornithine/laminin-coated tissue culture plates (Biocoat, Becton Dickinson Laboratories) in DMEM-plating medium overnight. The plating medium consisted of Dulbecco's minimal essential plating medium (DMEM) supplemented with 10% fetal calf serum (FCS; Hyclone), 0.6% glucose, 2 mM glutamine, 100 U/ml penicillin, 100 μg/ml streptomycin, and 20 mM HEPES. […] For experiments employing anti-NGF neutralizing antibodies, cultures were incubated with […] anti-NGF antiserum, and replaced every two days. Cultures were kept at 37° C., in 5% CO2, for up to 1 week, at which time the extent of well-defined neurite outgrowth was assessed.
Signaling by the neurotrophins, while mediated by different cell-surface receptors, converges on the extensively studied and well-characterized MAP kinase pathway. […] Therefore, the inventors explored the possibility that GM-284 might signal through NGF directly, or through the MAP kinase cascade. […]

[3] = target: T1, full-length FKBP52 (GST fusion protein) (Homo sapiens, UniProt Q02790); experiment: 3H-FK506 competition assay on bead-immobilized GST-FKBP52; type: binding; details: 10 nM FK506 with 3H-dihydro-FK506, 200-fold molar excess of cold ligand
T1 construct: GST-FKBP52 was constructed by PCR amplification of full-length FKBP52 from the pcDNA3 vector; made in house; host or cells: bacteria
T1 sequence (Q02790 1-459): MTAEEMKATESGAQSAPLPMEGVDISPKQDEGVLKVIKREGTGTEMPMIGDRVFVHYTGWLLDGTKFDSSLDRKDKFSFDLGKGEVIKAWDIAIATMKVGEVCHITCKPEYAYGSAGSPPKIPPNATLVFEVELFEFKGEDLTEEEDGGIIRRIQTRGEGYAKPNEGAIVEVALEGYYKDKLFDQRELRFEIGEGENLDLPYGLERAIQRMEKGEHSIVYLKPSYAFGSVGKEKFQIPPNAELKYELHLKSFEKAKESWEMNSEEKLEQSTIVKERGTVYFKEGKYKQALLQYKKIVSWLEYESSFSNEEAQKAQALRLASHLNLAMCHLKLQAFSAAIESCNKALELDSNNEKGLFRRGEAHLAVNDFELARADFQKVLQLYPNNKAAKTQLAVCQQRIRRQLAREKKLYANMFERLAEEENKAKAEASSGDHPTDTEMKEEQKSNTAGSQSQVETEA
Method: There was virtually no binding of GST alone to FKBP52 (not shown). […] Full-length FKBP52 was expressed as a GST fusion protein, purified over GSH-Sepharose resin. […] After extensive washing, the bound fraction (gray bars) was determined by liquid scintillation counting. […] Values are averages (with standard deviations) of three independent experiments.
Competition of […] binding to FKBP52 was carried out on GSH Sepharose beads from GST-FKBP52 expressed in bacteria. Briefly, GST-FKBP52 was constructed by PCR amplification of full-length FKBP52 from the pcDNA3 vector (Invitrogen, Carlsbad, Calif.), with FKBP52-specific primers flanked by EcORI/BamH1 restriction endonuclease sites. A 1.4-kb fragment was subsequently ligated into EcORI/BamH1, and digested with CIP-treated pGEX-6p to obtain a GST-fusion protein. The correct reading frame was verified by DNA sequencing. GST-FKBP52 fusion proteins were generated upon induction with 0.1 mM IPTG (from a 500-ml culture), and bacterial lysates were incubated with GSH Sepharose beads (Pharmacia, Peapack, N.J.) to collect FKBP52. Following several washes, first in bacterial lysis buffer and subsequently in PBS, the FKBP52 was over 90% pure, and was used for in vitro competition studies.

CCC(C)(C)C(=O)C(=O)N1CCC[C@H]1c1nnc([C@@H]2CCCN2C(=O)C(=O)C(C)(C)CC)o1 [GM-284]
binding to / inhibition of calcineurin [1]: neither bind to, nor inhibit, calcineurin | effect of anti-NGF / MEK1 inhibition on GM-284-mediated neurite outgrowth [2]: NGF- and MEK1-independent | competition for binding of 3H-FK506 to immobilized FKBP52 [3]: bind to FKBP52 with similar affinities; also recorded: each ligand is able to compete for binding to the receptor; also recorded: competes with FK506 for binding to full-length FKBP52
